The values below come from patent US11725012B2, “Imidazo[1,5-a]pyrazine derivatives as PI3K δ inhibitors” (priority 2016, dated 2023).

pIC50: −log10 of the molar value. Like-named read-outs stand apart in the source and are kept apart here.

What all share (format): biochemical
The target in assay [1] is recombinant PI3K (p110δ/p85α) (Homo sapiens, UniProt O00329). Nature of the assay: PI3Kδ ADP-Glo kinase assay. As for the experimental part: Compounds disclosed herein were tested for inhibition of PI3Kδ kinase activity using commercial ADP-Glo™ Kinase Assay (Promega Corporation) and following the manufacture's instruction. Briefly, recombinant PI3K (p110δ/p85α) enzyme, lipid kinase substrate and a serial dilution of compounds disclosed herein were incubated for 0.5 hr at room temperature. ATP was added to initiate the kinase reaction. After incubation for 1 hr at room temperature, ADP-Glo™ reagent was added to terminate the kinase reaction and deplete the remaining ATP. After incubation for 1 hr at room temperature, kinase detection reagent was added to simultaneously convert ADP to ATP and allow the newly synthesized ATP to be measured using a luciferase/luciferin reaction. After incubation for 0.5 hr at room temperature, the luminescence generated was measured on a PHERAstar FS plate reader (BMG LABTECH), The residual enzyme activity in presence of increasing concentrations of compounds was calculated based on the luminescence. The IC50 for each compound was derived from fitting the data to the four-parameter logistic equation by Graphpad Prism software.
Sequence of recombinant PI3K (p110δ/p85α) (O00329 whole entry): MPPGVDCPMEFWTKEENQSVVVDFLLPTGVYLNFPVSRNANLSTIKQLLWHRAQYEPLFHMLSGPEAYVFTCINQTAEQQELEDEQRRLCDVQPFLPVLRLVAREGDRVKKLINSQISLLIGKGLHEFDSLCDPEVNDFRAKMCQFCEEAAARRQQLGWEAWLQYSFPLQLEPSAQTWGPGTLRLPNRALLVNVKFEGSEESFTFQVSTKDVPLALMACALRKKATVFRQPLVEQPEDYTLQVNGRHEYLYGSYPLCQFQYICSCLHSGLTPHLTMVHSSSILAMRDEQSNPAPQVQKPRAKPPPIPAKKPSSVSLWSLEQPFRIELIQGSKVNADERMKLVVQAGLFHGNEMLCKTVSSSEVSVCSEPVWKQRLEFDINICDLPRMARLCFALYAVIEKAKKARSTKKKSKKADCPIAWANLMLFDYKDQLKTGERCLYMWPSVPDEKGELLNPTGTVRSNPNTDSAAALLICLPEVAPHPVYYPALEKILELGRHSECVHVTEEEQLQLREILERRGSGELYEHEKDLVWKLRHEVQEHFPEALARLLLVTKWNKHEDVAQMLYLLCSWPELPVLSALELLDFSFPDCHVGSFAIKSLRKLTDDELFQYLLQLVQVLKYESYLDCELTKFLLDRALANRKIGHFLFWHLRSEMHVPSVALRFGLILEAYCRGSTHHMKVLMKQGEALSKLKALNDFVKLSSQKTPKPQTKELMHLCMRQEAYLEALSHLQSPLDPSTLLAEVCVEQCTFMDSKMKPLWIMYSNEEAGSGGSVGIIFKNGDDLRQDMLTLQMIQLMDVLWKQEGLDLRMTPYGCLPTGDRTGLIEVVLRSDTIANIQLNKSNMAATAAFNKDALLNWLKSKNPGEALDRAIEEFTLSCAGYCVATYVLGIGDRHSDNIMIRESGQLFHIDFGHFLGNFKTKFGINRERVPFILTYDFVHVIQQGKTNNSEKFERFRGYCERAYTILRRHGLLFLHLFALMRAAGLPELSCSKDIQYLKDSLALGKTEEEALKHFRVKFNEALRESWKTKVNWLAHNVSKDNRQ
Sequence of recombinant PI3K (p110δ/p85α) (P27986 whole entry partner): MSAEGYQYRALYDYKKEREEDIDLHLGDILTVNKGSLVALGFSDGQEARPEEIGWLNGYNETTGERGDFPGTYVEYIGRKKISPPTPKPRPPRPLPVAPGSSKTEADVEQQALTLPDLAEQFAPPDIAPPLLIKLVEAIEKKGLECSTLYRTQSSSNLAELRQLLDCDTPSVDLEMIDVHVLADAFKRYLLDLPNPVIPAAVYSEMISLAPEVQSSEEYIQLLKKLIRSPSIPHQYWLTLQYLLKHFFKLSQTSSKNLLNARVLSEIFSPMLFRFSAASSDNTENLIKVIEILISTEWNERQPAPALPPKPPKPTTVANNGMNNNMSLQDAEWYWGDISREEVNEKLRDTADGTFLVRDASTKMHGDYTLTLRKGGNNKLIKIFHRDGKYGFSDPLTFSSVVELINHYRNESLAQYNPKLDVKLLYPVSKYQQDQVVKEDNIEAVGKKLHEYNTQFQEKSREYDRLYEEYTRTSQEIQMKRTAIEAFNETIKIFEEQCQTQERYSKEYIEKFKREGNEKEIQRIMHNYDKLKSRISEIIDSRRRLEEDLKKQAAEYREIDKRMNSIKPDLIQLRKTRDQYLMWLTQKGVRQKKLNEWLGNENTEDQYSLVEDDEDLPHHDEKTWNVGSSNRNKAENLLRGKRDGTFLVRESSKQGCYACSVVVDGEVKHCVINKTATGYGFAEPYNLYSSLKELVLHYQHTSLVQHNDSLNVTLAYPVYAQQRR
(ADP-Glo first removes unused ATP, then detects ADP through luciferase.)

The target in assay [2] is recombinant PI3K (p110α/p85α) (Homo sapiens, UniProt P42336). Nature of the assay: PI3Kα ADP-Glo kinase assay.
Sequence of recombinant PI3K (p110α/p85α) (P42336 whole entry): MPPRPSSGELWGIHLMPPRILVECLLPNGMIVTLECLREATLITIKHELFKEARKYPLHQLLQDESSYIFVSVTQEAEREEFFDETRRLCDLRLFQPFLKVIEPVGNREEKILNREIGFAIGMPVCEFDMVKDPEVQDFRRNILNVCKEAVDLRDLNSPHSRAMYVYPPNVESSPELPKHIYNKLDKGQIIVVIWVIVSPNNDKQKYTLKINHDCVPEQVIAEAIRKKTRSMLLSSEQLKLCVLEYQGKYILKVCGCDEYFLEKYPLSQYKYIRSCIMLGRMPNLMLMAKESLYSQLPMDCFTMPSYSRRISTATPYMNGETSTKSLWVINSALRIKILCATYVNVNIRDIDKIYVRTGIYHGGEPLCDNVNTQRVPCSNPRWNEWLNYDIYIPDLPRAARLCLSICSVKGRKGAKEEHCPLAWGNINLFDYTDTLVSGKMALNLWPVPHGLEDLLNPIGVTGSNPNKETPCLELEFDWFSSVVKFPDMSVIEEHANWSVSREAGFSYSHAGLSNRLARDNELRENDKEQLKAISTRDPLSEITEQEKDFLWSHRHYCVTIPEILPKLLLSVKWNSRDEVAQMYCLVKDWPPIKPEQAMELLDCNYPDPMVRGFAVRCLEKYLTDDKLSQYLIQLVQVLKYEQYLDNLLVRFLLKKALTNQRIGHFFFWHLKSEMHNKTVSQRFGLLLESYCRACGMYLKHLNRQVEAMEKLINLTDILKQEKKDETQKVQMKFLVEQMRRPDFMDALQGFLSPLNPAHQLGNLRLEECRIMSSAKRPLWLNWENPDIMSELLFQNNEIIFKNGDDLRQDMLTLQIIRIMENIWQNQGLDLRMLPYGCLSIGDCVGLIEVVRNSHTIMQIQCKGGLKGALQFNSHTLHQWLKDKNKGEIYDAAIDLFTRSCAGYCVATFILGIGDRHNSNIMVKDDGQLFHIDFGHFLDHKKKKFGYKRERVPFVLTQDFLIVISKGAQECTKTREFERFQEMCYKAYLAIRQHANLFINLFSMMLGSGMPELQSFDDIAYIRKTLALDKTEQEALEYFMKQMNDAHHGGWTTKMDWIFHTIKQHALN
Sequence of recombinant PI3K (p110α/p85α) (P27986 whole entry partner): as the sequence (P27986 whole entry partner) above
The target of assay [3] is PI3K (p110β/p85α) (Homo sapiens, UniProt P42338). Nature of the assay: PI3Kβ ADP-Glo kinase assay.
Sequence of PI3K (p110β/p85α) (P42338 whole entry): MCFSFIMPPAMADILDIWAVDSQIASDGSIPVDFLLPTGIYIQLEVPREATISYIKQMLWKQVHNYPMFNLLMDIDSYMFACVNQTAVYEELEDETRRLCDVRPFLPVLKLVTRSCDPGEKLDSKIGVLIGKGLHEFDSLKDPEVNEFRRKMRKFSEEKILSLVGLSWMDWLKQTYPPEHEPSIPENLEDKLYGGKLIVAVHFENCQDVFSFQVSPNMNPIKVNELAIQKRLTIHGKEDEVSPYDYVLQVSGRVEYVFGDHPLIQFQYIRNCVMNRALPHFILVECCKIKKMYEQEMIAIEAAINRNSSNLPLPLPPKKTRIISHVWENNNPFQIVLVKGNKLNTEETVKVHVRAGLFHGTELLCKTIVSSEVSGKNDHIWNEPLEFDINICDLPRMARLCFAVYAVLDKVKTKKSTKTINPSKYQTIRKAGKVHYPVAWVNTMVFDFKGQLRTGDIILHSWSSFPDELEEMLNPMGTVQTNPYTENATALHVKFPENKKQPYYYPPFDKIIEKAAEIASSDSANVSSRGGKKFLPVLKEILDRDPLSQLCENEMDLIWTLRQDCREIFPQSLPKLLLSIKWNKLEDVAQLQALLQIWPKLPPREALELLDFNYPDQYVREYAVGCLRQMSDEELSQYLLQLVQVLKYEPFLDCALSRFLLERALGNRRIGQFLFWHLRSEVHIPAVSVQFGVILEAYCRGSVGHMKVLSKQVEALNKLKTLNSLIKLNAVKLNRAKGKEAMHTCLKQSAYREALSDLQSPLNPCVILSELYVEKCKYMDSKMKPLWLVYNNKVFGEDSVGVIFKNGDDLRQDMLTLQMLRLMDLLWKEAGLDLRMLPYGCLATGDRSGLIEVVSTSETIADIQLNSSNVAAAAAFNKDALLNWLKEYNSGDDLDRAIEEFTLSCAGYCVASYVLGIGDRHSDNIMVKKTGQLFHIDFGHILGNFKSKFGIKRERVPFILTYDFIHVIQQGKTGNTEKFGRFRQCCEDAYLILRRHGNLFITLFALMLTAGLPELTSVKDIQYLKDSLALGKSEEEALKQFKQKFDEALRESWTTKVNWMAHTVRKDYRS
Sequence of PI3K (p110β/p85α) (P27986 whole entry partner): as the sequence (P27986 whole entry partner) above
Assay [4] concerns the target PI3K (p110γ) (Homo sapiens, UniProt P48736). Nature of the assay: PI3Kγ ADP-Glo kinase assay.
Setting [5] is: read-out: PI3Kδ Enzyme activity IC50.
The mark [6] stands for this setting: read-out: PI3Kα Enzyme activity IC50.
Setting [7] is: read-out: PI3Kβ Enzyme activity IC50.
Setting [8] is: read-out: PI3Kγ Enzyme activity IC50.

Sequence of PI3K (p110γ) (P48736 whole entry): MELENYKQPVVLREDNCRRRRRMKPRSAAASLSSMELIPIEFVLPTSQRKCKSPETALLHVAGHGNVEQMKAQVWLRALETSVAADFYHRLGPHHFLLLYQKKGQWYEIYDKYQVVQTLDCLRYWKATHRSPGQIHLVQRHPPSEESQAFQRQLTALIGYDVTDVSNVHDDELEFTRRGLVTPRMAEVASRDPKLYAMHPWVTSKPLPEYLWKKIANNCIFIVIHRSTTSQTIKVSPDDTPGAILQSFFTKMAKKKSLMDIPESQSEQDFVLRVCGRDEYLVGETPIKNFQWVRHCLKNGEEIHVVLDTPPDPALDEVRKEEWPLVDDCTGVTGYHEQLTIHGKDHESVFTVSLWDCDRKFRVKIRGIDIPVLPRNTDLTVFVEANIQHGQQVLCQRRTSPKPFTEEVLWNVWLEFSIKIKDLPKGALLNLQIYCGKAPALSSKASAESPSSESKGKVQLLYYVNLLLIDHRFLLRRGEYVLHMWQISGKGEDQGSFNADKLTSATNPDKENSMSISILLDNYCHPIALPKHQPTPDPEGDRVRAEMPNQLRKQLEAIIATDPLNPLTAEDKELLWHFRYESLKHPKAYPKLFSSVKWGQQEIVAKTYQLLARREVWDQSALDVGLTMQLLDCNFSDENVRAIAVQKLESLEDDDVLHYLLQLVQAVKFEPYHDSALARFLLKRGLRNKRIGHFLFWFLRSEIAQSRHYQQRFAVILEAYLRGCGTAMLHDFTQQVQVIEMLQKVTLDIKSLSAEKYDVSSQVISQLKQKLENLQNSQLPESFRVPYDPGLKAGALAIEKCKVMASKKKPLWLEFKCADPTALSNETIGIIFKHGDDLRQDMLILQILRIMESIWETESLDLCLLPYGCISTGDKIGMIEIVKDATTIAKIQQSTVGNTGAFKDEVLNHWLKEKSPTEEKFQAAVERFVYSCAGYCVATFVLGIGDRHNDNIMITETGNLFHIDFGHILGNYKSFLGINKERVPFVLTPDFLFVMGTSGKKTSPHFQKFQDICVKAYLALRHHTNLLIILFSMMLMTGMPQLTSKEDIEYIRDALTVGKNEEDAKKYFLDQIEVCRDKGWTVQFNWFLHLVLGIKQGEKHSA

Usually pIC50 stands for the IC50 on a negative log10 scale, so that one unit is a factor of ten. Consider `CCOc1c(C(C)c2nc(C)c3c(N)nccn23)cc(Cl)c(C)c1-c1ccc(C(F)(F)F)nc1` (centres unmarked) [Compound 32, 3-(1-(5-chloro-2-ethoxy-4-methyl-3-(6-(trifluoromethyl)pyridin-3-yl)phenyl)ethyl)-1-methylimidazo[1,5-a]pyrazin-8-amine], for which the pIC50 is 8.07 in assay [1] (setting [5]), 5.13 in assay [2] (setting [6]), 5.46 in assay [3] (setting [7]) and 5.68 in assay [4] (setting [8]).
`Cc1nc([C@@H](C)c2cc(Cl)c(F)c(-c3ccc(C(=O)N4CCC[C@@H]4C(=O)O)nc3)c2OC(C)C)n2ccnc(N)c12` [Compound 69, (5-(3-((S)-1-(8-amino-1-methylimidazo[1,5-a]pyrazin-3-yl)ethyl)-5-chloro-6-fluoro-2-isopropoxyphenyl)picolinoyl)-D-proline]: the pIC50 was 9.15 in assay [1] (setting [5]), 5.15 in assay [2] (setting [6]), 6.21 in assay [3] (setting [7]) and 6.21 in assay [4] (setting [8]).
As to `CCOc1c(C(C)c2nc(Cl)c3c(N)nccn23)cc(Cl)c(F)c1-c1ccc(C(=O)N(C)C)nc1` (centres unmarked) [Compound 13, 5-(3-(1-(8-amino-1-chloroimidazo[1,5-a]pyrazin-3-yl)ethyl)-5-chloro-2-ethoxy-6-fluorophenyl)-N,N-dimethylpicolinamide], the pIC50 in assay [1] (setting [5]) is 8.92; in assay [2] (setting [6]) it was 5.92; in assay [3] (setting [7]) it was 6.40; in assay [4] (setting [8]) it was 6.32.
In the same order, the values of `CC(C)Oc1c([C@H](C)c2nc(Cl)c3c(N)nccn23)cc(Cl)c(F)c1-c1ccc(C(N)=O)nc1` [Compound 17B] are 9.55, 6.01, 6.17 and 6.28.
Take `CCOc1c([C@H](C)c2nc(Cl)c3c(N)nccn23)cc(Cl)c(C)c1-c1ccc(C(=O)N(C)C)nc1` [Compound 11, (S)-5-(3-(1-(8-amino-1-chloroimidazo[1,5-a]pyrazin-3-yl)ethyl)-5-chloro-2-ethoxy-6-methylphenyl)-N,N-dimethylpicolinamide]: the pIC50 was 9.27 in assay [1] (setting [5]), 6.27 in assay [2] (setting [6]), 6.44 in assay [3] (setting [7]) and 6.72 in assay [4] (setting [8]).
For `CCOc1c(C(C)c2nc(Cl)c3c(N)nccn23)cc(Cl)c(C)c1-c1ccc(OC)nc1` (centres unmarked) [Compound 29, 1-chloro-3-(1-(5-chloro-2-ethoxy-3-(6-methoxypyridin-3-yl)-4-methylphenyl)ethyl)imidazo[1,5-a]pyrazin-8-amine] the same measures were 8.68, 5.54, 6.09 and 5.96.
For `CCOc1c(C(C)c2nc(Cl)c3c(N)nccn23)cc(Cl)c(C)c1-c1ccc(=O)[nH]c1` (centres unmarked) [Compound 15, 5-(3-(1-(8-amino-1-chloroimidazo[1,5-a]pyrazin-3-yl)ethyl)-5-chloro-2-ethoxy-6-methylphenyl)pyridin-2(1H)-one] the same measures were 8.92, 6.08, 6.49 and 6.49.
For `CCOc1c(C(C)c2nc(Cl)c3c(N)nccn23)cc(Cl)c(C)c1N1CCOCC1` (centres unmarked) [Compound 51, 1-chloro-3-(1-(5-chloro-2-ethoxy-4-methyl-3-morpholinophenyl)ethyl)imidazo[1,5-a]pyrazin-8-amine] the same measures were 8.80, 5.54, 5.57 and 5.77.
For `Cc1nc([C@@H](C)c2cc(Cl)c(F)c(-c3ccc(C(=O)N4CC(O)C4)nc3)c2OC(C)C)n2ccnc(N)c12` [Compound 63, (S)-(5-(3-(1-(8-amino-1-methylimidazo[1,5-a]pyrazin-3-yl)ethyl)-5-chloro-6-fluoro-2-isopropoxyphenyl)pyridin-2-yl)(3-hydroxyazetidine-1-yl)methanone], the negative-log IC50 (pIC50) in assay [1] (setting [5]) is 9.25; in assay [2] (setting [6]), 5.59; in assay [3] (setting [7]) it was 5.64; in assay [4] (setting [8]), 5.62.
In the case of `CC(C)Oc1c(C(C)c2nc(Cl)c3c(N)nccn23)cc(Cl)c(F)c1-c1ccc(C(=O)O)nc1` (centres unmarked) [Compound 18, 5-(3-(1-(8-amino-1-chloroimidazo[1,5-a]pyrazin-3-yl)ethyl)-5-chloro-6-fluoro-2-isopropoxyphenyl)picolinic Acid], the pIC50 in assay [1] (setting [5]) was 8.89; in assay [2] (setting [6]), 5.15; in assay [3] (setting [7]), 5.96; in assay [4] (setting [8]), 6.47.
With `CCOc1c(C(C)c2nc(Cl)c3c(N)nccn23)cc(Cl)c(C)c1-c1ccc(OC)cc1` (centres unmarked) [Compound 45, 1-chloro-3-(1-(5-chloro-2-ethoxy-4′-methoxy-6-methyl-[1,1′-biphenyl]-3-yl)ethyl)imidazo[1,5-a]pyrazin-8-amine], the pIC50 was 7.77 in assay [1] (setting [5]), 5.96 in assay [2] (setting [6]), 6.03 in assay [3] (setting [7]) and 5.92 in assay [4] (setting [8]).
For `COc1c(C(C)c2nc(Br)c3c(N)nccn23)cc(Cl)c(C)c1-c1ccc(C)nc1` (centres unmarked) [Compound 19, 1-bromo-3-(1-(5-chloro-2-methoxy-4-methyl-3-(6-methylpyridin-3-yl)phenyl)ethyl) imidazo[1,5-a]pyrazin-8-amine], the pIC50 in assay [1] (PI3Kδ Enzyme activity IC50) is 8.89; in assay [2] (PI3Kα Enzyme activity IC50), 6.24; in assay [3] (PI3Kβ Enzyme activity IC50), 6.74; in assay [4] (PI3Kγ Enzyme activity IC50), 6.68.
Regarding `CC(C)Oc1c(C(C)c2nc(Cl)c3c(N)nccn23)cc(Cl)c(F)c1C1CNC(=O)C1` (single isomer, unassigned) [Compound 48A, 4-(3-(1-(8-amino-1-chloroimidazo[1,5-a]pyrazin-3-yl)ethyl)-5-chloro-6-fluoro-2-isopropoxyphenyl)pyrrolidin-2-one], the pIC50 is 9.40 in assay [1] (setting [5]), 5.32 in assay [2] (setting [6]), 6.36 in assay [3] (setting [7]) and 6.10 in assay [4] (setting [8]).
For `CCOc1c([C@H](C)c2nc(Cl)c3c(N)nccn23)cc(Cl)c(C)c1-c1ccc(C)nc1` [Compound 8A] the same measures were 9.29, 5.89, 6.24 and 6.52.
For `CC(C)Oc1c(C(C)c2nc(Cl)c3c(N)nccn23)cc(Cl)c(F)c1C1CNC(=O)C1` (centres unmarked) [Compound 48, 4-(3-(1-(8-amino-1-chloroimidazo[1,5-a]pyrazin-3-yl)ethyl)-5-chloro-6-fluoro-2-isopropoxyphenyl)pyrrolidin-2-one] the same measures were 9.38, 6.27, 6.24 and 6.28.
In the same order, the values of `Cc1nc([C@@H](C)c2cc(Cl)c(F)c(-c3ccc(C(=O)N4CC(C(=O)O)C4)nc3)c2OC(C)C)n2ccnc(N)c12` [Compound 65, (S)-1-(5-(3-(1-(8-amino-1-methylimidazo[1,5-a]pyrazin-3-yl)ethyl)-5-chloro-6-fluoro-2-isopropoxyphenyl)picolinoyl)azetidine-3-carboxylic Acid] are 9.15, 5.27, 5.92 and 5.80.
Take `CCOc1c(C(C)c2nc(Cl)c3c(N)nccn23)cc(F)c(Cl)c1-c1ccc(C(F)(F)F)nc1` (centres unmarked) [Compound 33, 1-chloro-3-(1-(4-chloro-2-ethoxy-5-fluoro-3-(6-(trifluoromethyl)pyridin-3-yl)phenyl)ethyl)imidazo[1,5-a]pyrazin-8-amine]: the pIC50 in assay [1] (setting [5]) is 8.24; in assay [2] (setting [6]) it was 5.74; in assay [3] (setting [7]), 5.74; in assay [4] (setting [8]), 6.12.
Consider `CC(c1cc(Cl)c(C#N)c(=O)n1-c1ccccc1)n1cc(Br)c2c(N)ncnc21` (centres unmarked) [Compound 54, 6-(1-(4-amino-5-bromo-7H-pyrrolo[2,3-d]pyrimidin-7-yl)ethyl)-4-chloro-2-oxo-1-phenyl-1,2-dihydropyridine-3-carbonitrile], for which the pIC50 is 7.82 in assay [1] (setting [5]), 4.54 in assay [2] (setting [6]), 5.77 in assay [3] (setting [7]) and 5.38 in assay [4] (setting [8]).
`CCOc1c(C(C)c2nc(Cl)c3c(N)nccn23)cc(Cl)c(Cl)c1-c1ccc(C(F)(F)F)nc1` (centres unmarked) [Compound 36, 1-chloro-3-(1-(4,5-dichloro-2-ethoxy-3-(6-(trifluoromethyl)pyridin-3-yl)phenyl)ethyl)imidazo[1,5-a]pyrazin-8-amine]: the pIC50 in assay [1] (setting [5]) is 8.66; in assay [2] (setting [6]), 5.89; in assay [3] (setting [7]), 6.24; in assay [4] (setting [8]), 6.14.
Turning to `Cc1nc([C@@H](C)c2cc(Cl)c(F)c(-c3ccc(C(=O)N4CCC[C@H]4C(=O)O)nc3)c2OC(C)C)n2ccnc(N)c12` [Compound 67, (5-(3-((S)-1-(8-amino-1-methylimidazo[1,5-a]pyrazin-3-yl)ethyl)-5-chloro-6-fluoro-2-isopropoxyphenyl)picolinoyl)-L-proline], the pIC50 in assay [1] (setting [5]) was 9.33; in assay [2] (setting [6]) it was 5.28; in assay [3] (setting [7]), 6.34; in assay [4] (setting [8]), 5.92.
